Results taken from patent US10660959B2, “Formulations of a PI3K/mTOR-inhibitor for intravenous administration” (Pfizer Inc., priority 2014, dated 2020).
Where “and” joins values, the source holds several entries; their conditions need not be identical. Equal values may be shown once.

Experiments:
Assay type in all cases: physicochemical
[1] = Chemical and physical stability of crystalline free base on storage; conditions: crystalline form, 25° C. and 60% Relative Humidity
[2] = Visual observation of solution clarity (light box per European Pharmacopoeia Method 2.9.20, black and white background, Tyndall beam)
Text: A clear solution is defined as a visually clear solution essentially free from any visible particulates that can be observed on a visual inspection. Generally, if any particulate matter is observed, the formulation is not suitable for intravenous administration and should not be utilised as occlusion of blood vessels may occur. Accordingly, in view of the qualitative nature of the visual test, the term “essentially free from any visible particulates” is usually applied when no visible particulate matter is observed.
The visual inspection can be conducted in accordance with the method defined in European Pharmacopoeia Method 2.9.20 entitled “Particulate contamination: visible particles”. […]
By this method the solution in the vial was visually inspected in a Verivide DCAC60 (trade mark) light cabinet using a light meter reading of 3250 lux against a matt black panel and a white panel.
At the end of the 5 day period the pH of each sample was measured and a visual observation of each sample was made using a light box as described in European Pharmacopoeia Method 2.9.20 (above), inspecting the samples against a black and a white background. […]
These samples were visually assessed made using a light box as described in European Pharmacopoeia Method 2.9.20 (above), inspecting the samples against a black and a white background. […] The pH was also measured. […]

[3] = Water solubility of free base; conditions: for aqueous solution formulation at therapeutic dosage levels
[4] = pH measurement of aqueous formulation samples; conditions: for pH after dilution: roller bed overnight; for pH Check after 6 Days / pH Check after 48 hours: Investigation 5; for pH: Investigation 6, 15 hours
Description: (§1) At the end of the 5 day period the pH of each sample was measured and a visual observation of each sample was made using a light box as described in European Pharmacopoeia Method 2.9.20 (above), inspecting the samples against a black and a white background. The sample was also tested by illumination using a narrow (Tyndall) beam light source and then visually inspected from a direction perpendicular to the light beam in order to identify undissolved solid particles.
as §1, with “specified rolling” for “5 day”
as §1, with “These samples were visually assessed” for “At the end of the 5 day period the pH of each sample was measured and a visual observation of each sample was”, “particles. The pH was also measured.” for “particles.”
as §1, with “These samples were visually assessed” for “At the end of the 5 day period the pH of each sample was measured and a visual observation of each sample was made”, “particles. The pH was also measured.” for “particles.”
The diluted samples were placed on a roller bed overnight in order to reach equilibrium. The pH was also measured.
These samples were visually assessed using a light box as described in European Pharmacopoeia method 2.9.20 (above), inspecting the samples against a black and a white background. The sample was also tested by illumination using a narrow (Tyndall) beam light source and then visually inspected from a direction perpendicular to the light beam in order to identify undissolved solid particles. […] The pH was also measured.

[5] = Investigation 4, 3 mg/mL with 6.8 mole equivalents orthophosphoric acid (33.3 mM), roller bed room temperature ca. 19 hours, N = 1-3

Structure (SMILES): CN(C)C1CCN(C(=O)c2ccc(NC(=O)Nc3ccc(-c4nc(N5CCOCC5)nc(N5CCOCC5)n4)cc3)cc2)CC1 [1-(4-{[4-(Dimethylamino)piperidin-1-yl]carbonyl}phenyl)-3-[4-(4,6-dimorpholin-4-yl-1,3,5-triazin-2-yl)phenyl]urea]
- chemically and physically stable (duration) [1]: up to 3 years
- Visual assessment [2, 5]: Clear
- Visual assessment ([2]; Investigation 5, 3, 4 and 5 mg/mL in 33.3 mM acetic acid buffer pH 3.35, roller bed room temperature, 24 hour, 48 hour, 72 hour and 6 day periods): does not produce a clear solution
- water solubility [3]: insufficiently water soluble
- Final pH [4, 5]: 2.15 and 2.17
- pH after dilution ([4]; Investigation 4, orthophosphoric acid samples diluted to 0.05 mg/mL): 3.47 and 3.48 and 3.49
- pH after dilution ([4]; Investigation 4, orthophosphoric acid samples diluted to 0.1 mg/mL): 3.21 and 3.20
- pH after dilution ([4]; Investigation 4, orthophosphoric acid samples diluted to 0.5 mg/mL): 2.64 and 2.63
- pH Check after 6 Days ([4]; 3 mg/mL in 33.3 mM acetic acid): 3.99 and 3.95 and 3.96
- pH Check after 48 hours ([4]; 3 mg/mL in 33.3 mM acetic acid): 3.89 and 3.90
- pH Check after 6 Days ([4]; 4 mg/mL in 33.3 mM acetic acid): 4.03 and 4.04
- pH Check after 48 hours ([4]; 4 mg/mL in 33.3 mM acetic acid): 3.94 and 3.95
- pH Check after 6 Days ([4]; 5 mg/mL in 33.3 mM acetic acid): 4.18 and 4.19
- pH Check after 48 hours ([4]; 5 mg/mL in 33.3 mM acetic acid): 3.99 and 4.00
- pH ([4]; 3 mg/mL, ca. 6.8 mole equivalents orthophosphoric acid): 2.02 and 2.03 and 2.05
- pH ([4]; 3.5 mg/mL, ca. 5.9 mole equivalents orthophosphoric acid): 2.09 and 2.07
